Measured values taken from ChEMBL document CHEMBL5360622, “Leucettinibs, a Class of DYRK/CLK Kinase Inhibitors Inspired by the Marine Sponge Natural Product Leucettamine B” (J Med Chem, 2023).

Key:
[1] = target: Casein kinase I isoform epsilon (Homo sapiens, UniProt P49674)
[2] = target: Cyclin-dependent kinase 5/CDK5 activator 1 (Homo sapiens, UniProt Q00535); format: cell-based, Sf9
[3] = target: Dual specificity protein kinase CLK2 (Homo sapiens, UniProt P49760)
[4] = target: Dual specificity protein kinase CLK3 (Homo sapiens, UniProt P49761); format: cell-based, Sf9
Dual specificity protein kinase CLK3, sequence (P49761 whole entry): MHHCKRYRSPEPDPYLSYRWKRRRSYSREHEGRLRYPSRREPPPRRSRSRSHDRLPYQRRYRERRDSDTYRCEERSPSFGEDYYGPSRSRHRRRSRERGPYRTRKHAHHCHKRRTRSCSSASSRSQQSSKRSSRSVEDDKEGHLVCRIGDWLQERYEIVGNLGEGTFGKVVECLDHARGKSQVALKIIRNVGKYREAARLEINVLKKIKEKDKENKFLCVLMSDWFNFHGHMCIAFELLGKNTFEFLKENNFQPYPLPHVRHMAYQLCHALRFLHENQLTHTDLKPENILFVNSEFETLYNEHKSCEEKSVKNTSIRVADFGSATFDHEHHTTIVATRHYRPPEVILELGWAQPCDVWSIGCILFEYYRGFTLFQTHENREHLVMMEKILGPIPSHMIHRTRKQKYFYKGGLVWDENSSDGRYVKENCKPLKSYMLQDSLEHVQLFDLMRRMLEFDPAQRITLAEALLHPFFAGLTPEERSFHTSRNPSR

[5] = target: T1, Dual specificity tyrosine-phosphorylation-regulated kinase 2 (Homo sapiens, UniProt Q92630)
T1 sequence (Q92630 whole entry): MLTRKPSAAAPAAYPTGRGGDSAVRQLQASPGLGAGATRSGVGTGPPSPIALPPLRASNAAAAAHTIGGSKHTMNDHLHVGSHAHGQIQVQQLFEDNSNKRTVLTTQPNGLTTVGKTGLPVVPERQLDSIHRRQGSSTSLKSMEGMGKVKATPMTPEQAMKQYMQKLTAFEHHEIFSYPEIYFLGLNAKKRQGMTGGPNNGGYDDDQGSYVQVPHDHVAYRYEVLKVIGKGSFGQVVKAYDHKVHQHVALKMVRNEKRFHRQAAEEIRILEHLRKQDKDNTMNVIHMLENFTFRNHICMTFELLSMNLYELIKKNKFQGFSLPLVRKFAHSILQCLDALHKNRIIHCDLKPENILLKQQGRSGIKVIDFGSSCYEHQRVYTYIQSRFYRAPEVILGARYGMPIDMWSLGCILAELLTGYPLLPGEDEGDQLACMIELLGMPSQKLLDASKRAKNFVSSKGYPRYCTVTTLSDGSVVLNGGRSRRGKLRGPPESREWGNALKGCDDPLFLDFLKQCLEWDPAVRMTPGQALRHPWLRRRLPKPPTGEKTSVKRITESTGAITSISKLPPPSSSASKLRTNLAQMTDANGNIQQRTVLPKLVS

[6] = target: T2, Dual specificity tyrosine-phosphorylation-regulated kinase 4 (Homo sapiens, UniProt Q9NR20)
T2 sequence (Q9NR20 whole entry): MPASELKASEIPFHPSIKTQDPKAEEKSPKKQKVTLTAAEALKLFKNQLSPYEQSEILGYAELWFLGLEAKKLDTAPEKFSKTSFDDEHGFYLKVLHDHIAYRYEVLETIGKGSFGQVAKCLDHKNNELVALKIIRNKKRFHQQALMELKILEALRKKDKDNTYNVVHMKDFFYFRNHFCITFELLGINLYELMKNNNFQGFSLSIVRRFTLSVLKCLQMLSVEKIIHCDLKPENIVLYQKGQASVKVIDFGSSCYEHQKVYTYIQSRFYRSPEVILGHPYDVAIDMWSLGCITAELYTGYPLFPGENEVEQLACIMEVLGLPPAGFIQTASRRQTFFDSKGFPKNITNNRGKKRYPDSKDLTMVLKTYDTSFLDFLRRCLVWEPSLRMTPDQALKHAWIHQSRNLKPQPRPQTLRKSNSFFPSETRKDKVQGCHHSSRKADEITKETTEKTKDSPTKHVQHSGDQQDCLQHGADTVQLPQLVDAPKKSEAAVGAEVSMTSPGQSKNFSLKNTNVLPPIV

[7] = target: Glycogen synthase kinase-3 beta (Homo sapiens, UniProt P49841); format: cell-based, Sf9
Glycogen synthase kinase-3 beta, sequence (P49841 whole entry): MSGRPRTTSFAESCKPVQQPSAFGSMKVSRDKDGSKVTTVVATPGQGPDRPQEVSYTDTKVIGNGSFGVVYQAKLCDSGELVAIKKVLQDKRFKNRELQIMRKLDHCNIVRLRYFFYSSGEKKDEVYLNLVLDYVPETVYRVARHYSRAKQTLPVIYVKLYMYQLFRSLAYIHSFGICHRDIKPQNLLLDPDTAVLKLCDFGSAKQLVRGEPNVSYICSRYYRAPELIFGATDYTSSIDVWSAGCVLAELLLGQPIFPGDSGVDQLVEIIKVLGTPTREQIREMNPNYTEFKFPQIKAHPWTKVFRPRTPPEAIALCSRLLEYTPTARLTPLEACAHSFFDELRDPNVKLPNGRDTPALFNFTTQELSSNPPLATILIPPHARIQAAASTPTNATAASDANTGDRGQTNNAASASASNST

Dual specificity protein kinase CLK2, sequence (P49760 whole entry): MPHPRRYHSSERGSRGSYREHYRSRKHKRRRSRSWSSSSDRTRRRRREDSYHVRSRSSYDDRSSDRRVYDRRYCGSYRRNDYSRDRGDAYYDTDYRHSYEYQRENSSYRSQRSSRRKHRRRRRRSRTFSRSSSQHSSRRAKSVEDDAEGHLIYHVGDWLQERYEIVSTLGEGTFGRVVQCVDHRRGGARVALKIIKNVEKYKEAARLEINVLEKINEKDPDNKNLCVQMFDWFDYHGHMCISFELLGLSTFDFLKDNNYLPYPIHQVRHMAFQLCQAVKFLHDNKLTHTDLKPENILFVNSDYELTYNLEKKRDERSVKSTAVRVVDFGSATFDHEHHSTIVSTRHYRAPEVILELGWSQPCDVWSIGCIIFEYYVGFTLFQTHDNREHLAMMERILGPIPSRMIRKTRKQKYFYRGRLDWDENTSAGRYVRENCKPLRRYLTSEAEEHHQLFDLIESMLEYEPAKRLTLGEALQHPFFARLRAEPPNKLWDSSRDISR
Cyclin-dependent kinase 5/CDK5 activator 1, sequence (Q00535 whole entry): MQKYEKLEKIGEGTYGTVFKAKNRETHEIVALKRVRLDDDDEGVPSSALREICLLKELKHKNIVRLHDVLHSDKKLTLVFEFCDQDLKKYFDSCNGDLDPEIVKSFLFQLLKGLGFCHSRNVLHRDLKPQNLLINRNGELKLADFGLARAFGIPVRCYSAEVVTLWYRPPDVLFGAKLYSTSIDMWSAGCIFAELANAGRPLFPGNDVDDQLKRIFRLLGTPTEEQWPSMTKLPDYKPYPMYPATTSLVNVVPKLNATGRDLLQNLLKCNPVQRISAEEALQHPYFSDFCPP
Cyclin-dependent kinase 5/CDK5 activator 1, sequence (Q15078 whole entry, further chain): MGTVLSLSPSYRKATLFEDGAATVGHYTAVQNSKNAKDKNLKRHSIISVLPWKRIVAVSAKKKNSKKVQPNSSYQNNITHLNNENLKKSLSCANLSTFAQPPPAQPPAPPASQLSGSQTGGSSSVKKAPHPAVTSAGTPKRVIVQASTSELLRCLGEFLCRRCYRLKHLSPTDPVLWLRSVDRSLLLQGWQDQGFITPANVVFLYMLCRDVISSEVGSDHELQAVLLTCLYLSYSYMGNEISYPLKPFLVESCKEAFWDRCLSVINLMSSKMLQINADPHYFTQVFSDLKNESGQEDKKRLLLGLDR
Casein kinase I isoform epsilon, sequence (P49674 whole entry, canonical isoform): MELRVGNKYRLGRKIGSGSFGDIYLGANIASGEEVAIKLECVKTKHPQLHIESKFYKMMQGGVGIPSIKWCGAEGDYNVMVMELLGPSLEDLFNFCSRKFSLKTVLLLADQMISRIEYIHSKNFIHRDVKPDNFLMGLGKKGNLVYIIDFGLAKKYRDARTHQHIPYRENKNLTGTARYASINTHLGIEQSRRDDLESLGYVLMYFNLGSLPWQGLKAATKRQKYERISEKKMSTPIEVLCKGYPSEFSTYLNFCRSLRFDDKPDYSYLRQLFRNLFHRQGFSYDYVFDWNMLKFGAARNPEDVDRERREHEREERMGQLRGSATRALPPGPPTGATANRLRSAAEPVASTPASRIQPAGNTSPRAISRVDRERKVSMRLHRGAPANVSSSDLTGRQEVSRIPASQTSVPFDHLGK

Structure (SMILES)	IC50 [1] [nM]	IC50 [2] [nM]	IC50 [3] [nM]	IC50 [4] [nM]	IC50 [5] [nM]	IC50 [6] [nM]	IC50 [7] [nM]
O=C1NC(NCc2cccnc2)=N/C1=C\c1ccc2ncsc2c1	> 10000	> 10000	53	716	2010	1380	2840
O=C1NC(N[C@@H]2CCC[C@@H]2O)=N/C1=C\c1ccc2ncsc2c1 (racemic)	> 10000	> 10000	–	537	1210	448	> 10000
O=C1NC(N[C@@H](CO)CC2CCCC2)=N/C1=C\c1ccc2ncsc2c1	> 10000	> 10000	40	1460	4010	1720	2870
O=C1NC(Nc2cccnc2)=N/C1=C\c1ccc2ncsc2c1	> 10000	> 10000	84	201	–	1330	> 10000
O=C1NC(Nc2ccc(F)cc2)=N/C1=C\c1ccc2ncsc2c1	> 10000	> 10000	407	1820	743	–	> 10000
COC[C@H](NC1=N/C(=C\c2ccc3ncsc3c2)C(=O)N1)c1ccccc1	> 10000	> 10000	15	127	159	335	5170
CC[C@H](CO)NC1=N/C(=C\c2ccc3ncsc3c2)C(=O)N1	> 10000	> 10000	216	1150	1550	1600	> 10000
COc1nc(C)ccc1NC1=N/C(=C\c2ccc3ncsc3c2)C(=O)N1	> 10000	> 10000	–	> 10000	1870	–	8970
O=C1NC(NC2CCC(F)(F)CC2)=N/C1=C\c1ccc2ncsc2c1	> 10000	> 10000	–	467	455	1970	> 10000
Cn1ccc(NC2=N/C(=C\c3ccc4ncsc4c3)C(=O)N2)n1	> 10000	> 10000	111	201	1130	4160	2580
O=C1NC(N[C@@H]2CCOC2)=N/C1=C\c1ccc2ncsc2c1	> 10000	> 10000	404	747	–	2780	> 10000
O=C1NC(NCC23CC4CC(CC(C4)C2)C3)=N/C1=C\c1ccc2ncsc2c1	–	> 10000	37	1480	> 10000	3700	> 10000
O=C1NC(N[C@H]2CCOC2)=N/C1=C\c1ccc2ncsc2c1	> 10000	> 10000	398	405	–	1040	6570
O=C1NC(N[C@@H](CO)CC2CC2)=N/C1=C\c1ccc2ncsc2c1	> 10000	> 10000	42	686	8210	731	4390
COC[C@@H](NC1=N/C(=C\c2ccc3ncsc3c2)C(=O)N1)c1ccccc1	> 10000	> 10000	616	450	260	3790	5600
O=C1NC(N[C@@H]2CCC[C@H]2O)=N/C1=C\c1ccc2ncsc2c1 (racemic)	> 10000	> 10000	–	224	472	553	> 10000

Now from value to molecule:

IC50 [1] [nM]	IC50 [2] [nM]	IC50 [3] [nM]	IC50 [4] [nM]	IC50 [5] [nM]	IC50 [6] [nM]	IC50 [7] [nM]	Structure (SMILES)
> 10000	> 10000	19	1210	573	127	4760	O=C1NC(NC2C3CC4CC(C3)CC2C4)=N/C1=C\c1ccc2ncsc2c1 (stereo not drawn)
> 10000	> 10000	474	1600	1730	3160	> 10000	CC[C@@H](CO)NC1=N/C(=C\c2ccc3ncsc3c2)C(=O)N1
–	943	–	–	–	–	616	NCC(NC1=N/C(=C\c2ccc3ncsc3c2)C(=O)N1)c1ccccc1 (stereo not drawn)
3430	> 10000	28	1060	–	244	999	CN1CCN(c2ccc(NC3=N/C(=C\c4ccc5ncsc5c4)C(=O)N3)cc2)CC1
> 10000	> 10000	143	1920	175	294	1190	CN1CCN(c2ncc(NC3=N/C(=C\c4ccc5ncsc5c4)C(=O)N3)cn2)CC1
2430	3210	–	114	–	–	855	O=C1NC(NC23CC4CC(CC2C4)C3)=N/C1=C\c1ccc2ncsc2c1
1200	610	–	610	–	263	663	CC(=O)NC12CC3CC(C1)CC(NC1=N/C(=C\c4ccc5ncsc5c4)C(=O)N1)(C3)C2
1760	304	–	284	–	284	455	COC12CC3CC(CC(NC4=N/C(=C\c5ccc6ncsc6c5)C(=O)N4)(C3)C1)C2
> 10000	4950	98	392	625	1770	9620	O=C1NC(N[C@H]2CC[C@H](O)CC2)=N/C1=C\c1ccc2ncsc2c1
–	2520	–	–	–	–	102	NC[C@@H](NC1=N/C(=C\c2ccc3ncsc3c2)C(=O)N1)c1ccccc1
6350	2010	30	–	–	274	227	CNCC(NC1=N/C(=C\c2ccc3ncsc3c2)C(=O)N1)c1ccccc1 (racemic)
5810	1540	–	1020	–	233	511	CS(=O)(=O)NC12CC3CC(CC(NC4=N/C(=C\c5ccc6ncsc6c5)C(=O)N4)(C3)C1)C2
1480	5010	–	1800	–	411	1330	CN(C)C12CC3CC(CC(NC4=N/C(=C\c5ccc6ncsc6c5)C(=O)N4)(C3)C1)C2
–	2340	–	–	–	–	1110	NC[C@H](NC1=N/C(=C\c2ccc3ncsc3c2)C(=O)N1)c1ccccc1
420	602	–	–	–	174	1360	O=C1NC(NC2CCCCC(F)(F)C2)=N/C1=C\c1ccc2ncsc2c1 (racemic)
2270	1450	–	658	–	270	366	O=C1NC(NC23CC4CC(CC(NC(=O)C5CC5)(C4)C2)C3)=N/C1=C\c1ccc2ncsc2c1
612	146	–	194	–	–	169	O=C1NC(NC23CC4CC(CC(F)(C4)C2)C3)=N/C1=C\c1ccc2ncsc2c1
1100	332	–	215	–	–	317	O=C1NC(NC23CC4CC(CC(O)(C4)C2)C3)=N/C1=C\c1ccc2ncsc2c1
